The source of these data is ChEMBL document CHEMBL5360550 (Eur J Med Chem, 2023).

pIC50: −log10 of the molar value. Activity calls are given as the source filed them. No cut-off for these calls is given here.

Data set [1] deals with AT rich DNA.
Description: Binding affinity to double stranded [poly(dA-dT)2] DNA (unknown origin) minor groove assessed as increase in melting temperature by spectrophotometer analysis
Data set [2] relates to Trypanosoma brucei rhodesiense. Description: In vivo antiprotozoal activity against acute hemolymphatic stage Trypanosoma brucei rhodesiense STIB900 infected in NMRI mouse assessed as reduction of parasitaemia at 5 mg/kg, ip for 4 days consecutive and measured upto 60 days relative to control. The arrangement: scale not given: the % may be the effect or the level left. Type of data set: functional.

Data set [3] concerns AT rich DNA. As to the kind of experiment: Binding affinity to double stranded [poly(dA-dT)2] DNA (unknown origin) minor groove assessed as increase in positive induced CD signal in 360 to 400 nanometer absorption range incubated for 10 mins by circular dichroism spectroscopy. The format is nucleic-acid assay.
The subject of data set [4] is Trypanosoma brucei rhodesiense. As to the kind of experiment: Antiprotozoal activity against long slender blood stream form Trypanosoma brucei rhodesiense STIB900 assessed as parasite growth inhibition incubated for 70 hrs by resazurin based microplate fluorometer analysis. The format is functional, organism-based. The note with it: STIB900, 70 h.
Data set [5] can be described thus: Cytotoxicity against rat L6 cells assessed as reduction in cell viability incubated for 70 hrs by Alamar blue based microplate fluorescence assay. The format is toxicity. On the technique in general: Resazurin is reduced to fluorescent resorufin, in cell work by metabolically active cells.
The nature of data set [6]: Selectivity index, ratio of IC50 for cytotoxicity against rat L6 cells to IC50 for antiprotozoal activity against chloroquine resistant Plasmodium falciparum K1 infected in human erythrocytes. The note with it: read-out: Ratio IC50. Type of data set: toxicity, cell-based.
The next data set has as its system Plasmodium falciparum. As to the kind of experiment: Antiprotozoal activity against chloroquine resistant Plasmodium falciparum K1 infected in human erythrocytes assessed as parasite growth inhibition incubated for 48 hrs by [3H]-hypoxanthine incorporation assay based Betaplate liquid scintillation counter method. The format is functional, organism-based. The note with it: K1, Erythrocyte.

Data set [7] can be described thus: Selectivity index, ratio of IC50 for cytotoxicity against rat L6 cells to IC50 for antiprotozoal activity against long slender blood stream form Trypanosoma brucei rhodesiense STIB900. The format is toxicity, cell-based. The note with it: read-out: Ratio IC50.
Data set [8] concerns Trypanosoma brucei rhodesiense. As to the kind of experiment: In vivo antiprotozoal activity against acute hemolymphatic stage Trypanosoma brucei rhodesiense STIB900 infected in NMRI mouse assessed as reduction of parasitaemia at 10 mg/kg, ip for 4 days consecutive and measured upto 60 days relative to control. Type of data set: functional. Also on record: scale not given: the % may be the effect or the level left. The conditions noted are these: time 4 day.

Broadly, the ΔTm is the shift of the melting midpoint relative to a reference. As to `N=C(N)c1ccc(-c2ccc(-c3ccc(C(=N)N)cc3)o2)cc1` [FURAMIDINE], the ΔTm in the data set on AT rich DNA [1] turned out to be 25 °C. Moreover, the Activity in data set [2] (time 4 day) is reported as 25%.

Broadly, the pIC50 is −log10 of the IC50, conventionally taken in molar units. Usually IC50 stands for the concentration at which inhibition is half-maximal. In the case of `N=C(N)c1ccc(-c2ccc(-c3cc4ccc(C(=N)N)cc4[nH]3)o2)cc1`, in the data set with AT rich DNA [1], the ΔTm is > 30 °C. Also, in the data set on AT rich DNA [3], the result was Active. Moreover, the pIC50 was 7.92 in [4] and 8.34 in the data set with Plasmodium falciparum. The IC50 at 70 h in data set [5] is 12.9 µM. Further, the outcome in [2] (time 4.0 day) was inactive. The selectivity ratio in data set [6] stood at 2800; in data set [7], 1080.

In the case of `COc1cc(C(=N)N)ccc1-c1ccc(-c2cc3ccc(C(=N)N)cc3[nH]2)o1`, the ΔTm in the data set on AT rich DNA [1] stood at 27 °C. Besides, the negative logarithm of the IC50 (pIC50) in data set [4] was 7.41. Besides, the IC50 at 70 h in data set [5] came to 11 µM. In addition, in [7], the selectivity ratio is 283.

Take `N=C(N)c1ccc(-c2ccc(-c3cc4ccc(C(=N)N)cc4[nH]3)s2)cc1`: the ΔTm in the data set with AT rich DNA [1] was > 30 °C. For the same compound, in the data set on AT rich DNA [3], the result was Active. In addition, the figures for the pIC50 (in [4]; in the data set with Plasmodium falciparum) were 7.92 and 8.14, respectively. Further, the IC50 at 70 h in data set [5] came to 12.4 µM. Besides, the outcome in data set [2] (time 4.0 day) was inactive. Moreover, the figures for the selectivity ratio in data set [6] and in [7] were 1720 and 1030, respectively.

Regarding `N=C(N)c1ccc(-c2ccc(-c3cc4ccc(C(=N)N)cc4[nH]3)o2)nc1`, the ΔTm with AT rich DNA [1] was 28 °C. Moreover, the outcome in the data set with AT rich DNA [3] was Active. In addition, the pIC50 is 7.77 in data set [4] and 8.19 with Plasmodium falciparum. Besides, the IC50 at 70 h in data set [5] was found to be 34.8 µM. For the same compound, the Activity in data set [2] (time 4 day) turned out to be 75%. In addition, the selectivity ratio in [6] stood at 5440; in data set [7], 2050.

For the compound `N=C(N)c1ccc(-c2ccc(-c3cc4cc(C(=N)N)ccc4[nH]3)s2)cc1`, the ΔTm in the data set on AT rich DNA [1] was 29 °C. Also, the values for the pIC50 (in data set [4]; in the data set on Plasmodium falciparum) were 8.22 and 8.55, respectively. Besides, the IC50 at 70 h in data set [5] was 17 µM. The Activity in data set [2] (time 4 day) turned out to be 50%. In addition, the values for the selectivity ratio in data set [6] and in data set [7] were 6070 and 2830, respectively.

On to `Cc1cc(C(=N)N)ccc1-c1ccc(-c2cc3ccc(C(=N)N)cc3[nH]2)o1`, for which the ΔTm with AT rich DNA [1] was > 30 °C. In data set [4], the pIC50 is 8.22. Further, the IC50 at 70 h in [5] is 5.1 µM. Moreover, in data set [2] (time 4.0 day), the result was inactive. Moreover, the selectivity ratio in data set [7] is 850.

As for `N=C(N)c1ccc(-c2ccc(-c3cc4cc(C(=N)N)ccc4[nH]3)[se]2)cc1`, the ΔTm in the data set with AT rich DNA [1] is > 30 °C. Besides, the result in the data set on AT rich DNA [3] was Active. For the same compound, the pIC50 was 8.52 in data set [4] and 8.41 with Plasmodium falciparum. For the same compound, the IC50 at 70 h in data set [5] came to 21.5 µM. Moreover, the Activity in data set [2] (time 4 day) was found to be 50%. The selectivity ratio is 5510 in data set [6] and 7170 in [7].

Take `N=C(N)c1ccc(-c2ccc(-c3cc4ccc(C(=N)N)cc4[nH]3)s2)nc1`: the ΔTm in the data set with AT rich DNA [1] was 29 °C. The pIC50 in data set [4] is 7.82. For the same compound, the IC50 at 70 h in data set [5] was found to be 14.5 µM. Moreover, the outcome in [2] (time 4.0 day) was inactive. In addition, the selectivity ratio in data set [7] was determined as 966.

`N=C(N)c1ccc(-c2ccc(-c3nc4ccc(C(=N)N)cc4[nH]3)s2)cc1`: the ΔTm in the data set with AT rich DNA [1] was > 30 °C. Also, the pIC50 in data set [4] is 7.57; in the data set with Plasmodium falciparum, 7.93. Further, the IC50 at 70 h in data set [5] came to 22.4 µM. In addition, the Activity in data set [8] amounted to 75%. Further, the selectivity ratio in data set [6] was 1900; in [7], 829.

As for `N=C(N)c1ccc(-c2ccc(-c3cc4cc(C(=N)N)ccc4[nH]3)o2)nc1`, the ΔTm in the data set on AT rich DNA [1] turned out to be 27 °C. The pIC50 was 8.22 in [4] and 8.24 in the data set on Plasmodium falciparum. Also, in [5], the IC50 at 70 h stood at 50.4 µM. Also, the Activity in [2] (time 4 day) stood at 75%. The selectivity ratio was 8690 in data set [6] and 8400 in data set [7].

Take `N=C(N)c1ccc(-c2ccc(-c3cc4cc(C(=N)N)ccc4[nH]3)o2)cc1`: the ΔTm in the data set on AT rich DNA [1] amounted to 29 °C. The result with AT rich DNA [3] was Active. For the same compound, the figures for the pIC50 (in data set [4]; in the data set with Plasmodium falciparum) were 8.70 and 8.55, respectively. For the same compound, the IC50 at 70 h in [5] worked out at 14.2 µM. The Activity in [2] (time 4 day) was determined as 75%. Further, the selectivity ratio is 5070 in data set [6] and 7100 in [7].

On to `N=C(N)c1ccc(-c2ccc(-c3nc4cc(C(=N)N)ccc4[nH]3)o2)cc1`, for which the ΔTm in the data set on AT rich DNA [1] is 25 °C. The pIC50 was 6.91 in [4] and 7.02 in the data set with Plasmodium falciparum. In data set [5], the IC50 at 70 h turned out to be 10.1 µM. Also, the Activity in data set [2] (time 4 day) came to 25%. Moreover, the selectivity ratio was determined as 105 in data set [6] and 82 in data set [7].

Take `N=C(N)c1ccc2cc(-c3ccc(-c4ccc(C(=N)N)nc4)o3)[nH]c2c1`: the ΔTm in the data set on AT rich DNA [1] was determined as 28 °C. Also, the pIC50 in data set [4] is 8.15; with Plasmodium falciparum, 8.44. The concentration for half-maximal inhibition (IC50) at 70 h in [5] was found to be 14.2 µM. Also, the result in data set [2] (time 4.0 day) was inactive. Further, the selectivity ratio was 3940 in [6] and 2030 in data set [7].
